pIC50, pKd: −log10 of the molar value. Where two headings read alike, the source gives them in different places.

Experiment [1] deals with T1, N-terminally FLAG-tagged PARP2 (amino acids 1-583) (Homo sapiens, UniProt Q9UGN5).
T1 construct: N-terminally FLAG-tagged PARP2 (amino acids 1-583)
Put plainly: PARP2 probe displacement HTRF assay. The experiment is classed as binding. The settings on record: binned Kd. As for the experimental part: Data analysis was performed identical as for PARP1.

Experiment [2] concerns the target T2, full length N-terminally FLAG-tagged PARP1 (Homo sapiens, UniProt P09874). Put plainly: PARP1 probe displacement HTRF assay. The settings on record: for Selectivity: PARP1 over PARP2, ratio Kd (PARP2)/Kd (PARP1); for pKd: read-out: PARP1 HTRF, binned Kd.
Experiment [3] deals with T2, full length N-terminally FLAG-tagged PARP1. Put plainly: PARP1 biochemical DELFIA assay (auto-PARylation). Set-up: recombinant full length human N-terminally FLAG-tagged PARP1.
The mark [4] stands for this setting: binned IC50, biochemical auto-PARylation assay.
Setting [5] is: binned IC50, PARP1 biochemical DELFIA assay.

T2 sequence (P09874 whole entry): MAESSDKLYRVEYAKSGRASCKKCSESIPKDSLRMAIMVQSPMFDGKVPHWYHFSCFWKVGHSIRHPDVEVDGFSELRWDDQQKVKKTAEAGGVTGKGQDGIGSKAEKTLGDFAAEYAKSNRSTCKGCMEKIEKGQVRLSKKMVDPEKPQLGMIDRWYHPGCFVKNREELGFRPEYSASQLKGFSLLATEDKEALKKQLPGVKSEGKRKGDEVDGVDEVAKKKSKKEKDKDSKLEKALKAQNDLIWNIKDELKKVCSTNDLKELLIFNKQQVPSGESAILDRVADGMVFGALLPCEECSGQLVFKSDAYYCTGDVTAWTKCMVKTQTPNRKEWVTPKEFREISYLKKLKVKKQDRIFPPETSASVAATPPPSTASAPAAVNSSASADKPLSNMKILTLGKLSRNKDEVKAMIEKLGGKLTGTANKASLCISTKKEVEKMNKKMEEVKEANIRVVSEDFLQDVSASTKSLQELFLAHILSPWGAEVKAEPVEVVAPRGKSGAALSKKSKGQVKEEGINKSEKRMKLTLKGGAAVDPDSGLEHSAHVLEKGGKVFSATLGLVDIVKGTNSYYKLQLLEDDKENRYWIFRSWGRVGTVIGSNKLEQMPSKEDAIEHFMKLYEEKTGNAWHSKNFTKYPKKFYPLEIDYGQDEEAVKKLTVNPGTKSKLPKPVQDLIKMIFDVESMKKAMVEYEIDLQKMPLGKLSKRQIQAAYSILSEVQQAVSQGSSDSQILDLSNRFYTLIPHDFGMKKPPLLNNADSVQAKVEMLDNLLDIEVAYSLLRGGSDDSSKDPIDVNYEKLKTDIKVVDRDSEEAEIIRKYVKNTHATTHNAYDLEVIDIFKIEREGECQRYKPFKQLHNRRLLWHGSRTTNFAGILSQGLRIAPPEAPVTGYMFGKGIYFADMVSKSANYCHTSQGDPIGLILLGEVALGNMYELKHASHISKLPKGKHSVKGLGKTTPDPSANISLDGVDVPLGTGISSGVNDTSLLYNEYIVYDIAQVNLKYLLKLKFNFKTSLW
T1 sequence (Q9UGN5 whole entry, the tested form may be a part): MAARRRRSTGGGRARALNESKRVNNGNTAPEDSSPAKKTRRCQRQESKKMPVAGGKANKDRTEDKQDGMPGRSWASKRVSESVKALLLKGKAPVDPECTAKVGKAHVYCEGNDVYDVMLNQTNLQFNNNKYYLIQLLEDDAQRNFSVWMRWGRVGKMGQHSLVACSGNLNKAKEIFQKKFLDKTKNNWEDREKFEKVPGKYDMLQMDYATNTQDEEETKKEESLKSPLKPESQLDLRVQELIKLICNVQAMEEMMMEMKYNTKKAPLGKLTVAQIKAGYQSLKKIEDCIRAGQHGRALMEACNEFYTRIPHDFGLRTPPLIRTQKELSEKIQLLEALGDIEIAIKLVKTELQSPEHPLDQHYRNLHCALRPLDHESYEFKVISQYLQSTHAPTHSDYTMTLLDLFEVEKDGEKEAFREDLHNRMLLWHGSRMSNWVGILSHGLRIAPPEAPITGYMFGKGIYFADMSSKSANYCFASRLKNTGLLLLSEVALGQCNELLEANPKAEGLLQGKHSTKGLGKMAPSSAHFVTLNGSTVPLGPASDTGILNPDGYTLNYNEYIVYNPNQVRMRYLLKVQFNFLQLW

Turning to `CCc1ccc(C2CCN(C3CCN(c4ccc(OC(F)F)nc4)CC3)C2)[nH]c1=O` (single isomer, unassigned) [Compound 382b], the pKd in experiment [1] (probe displacement HTRF) was 6.00 to 7.00. In experiment [2] (probe displacement HTRF), the Selectivity result was “+++ (+++ indicate a value of at least 100)” and the pKd was greater than 8.00. Further, the pIC50 in experiment [3] (setting [4]) is greater than 8.00.
In experiment [1] (probe displacement HTRF), `CNC(=O)c1ccc(N2CCC(N3CCC(c4nc5[nH]nc(C(F)(F)F)c5c(=O)[nH]4)C3)CC2)c(F)n1` (single isomer, unassigned) [Compound 267a] gave a pKd of 6.00 to 7.00. Moreover, in experiment [2] (probe displacement HTRF), the Selectivity entry was “+ (+ indicates a value of 10 to less than 50)” and the pKd is 7.00 to 8.00. The pIC50 in experiment [3] (setting [4]) was 7.00 to 8.00.
`CC(=O)Nc1ccc(N2CCC(N3CCC(c4nc5ccccc5c(=O)[nH]4)C3)CC2)cn1` (single isomer, unassigned) [Compound 262a]: the pKd in experiment [1] (probe displacement HTRF) is 5.00 to 6.00. Further, in experiment [2] (probe displacement HTRF), the Selectivity result is listed as “− (− indicates a value of less than 10)” and the pKd was 5.00 to 6.00. Moreover, the pIC50 in experiment [3] (setting [4]) is 6.00 to 7.00.
Take `CNC(=O)c1ccc(N2CCC(N3CCC(c4nc5c(c(C(F)(F)F)cn5C)c(=O)[nH]4)C3)CC2)cn1` (single isomer, unassigned) [Compound 170b]: the pKd in experiment [1] (PARP2 probe displacement HTRF) and in experiment [2] (PARP1 probe displacement HTRF) was greater than 8.00 in each case. Moreover, the Selectivity result in experiment [2] (probe displacement HTRF) is “− (− indicates a value of less than 10)”. For the same molecule, in experiment [3] (setting [5]), the pIC50 is greater than 8.00.
`CNC(=O)c1ccc(N2CCC(N3CCC(c4cc5[nH]nc(C(F)(F)F)c5c(=O)[nH]4)C3)CC2)c(F)n1` (single isomer, unassigned) [Compound 280b]: in experiment [1] (probe displacement HTRF), the pKd was 7.00 to 8.00. Further, in experiment [2] (probe displacement HTRF), the Selectivity result is on record as “++ (++ indicates a value of 50 to less than 100)” and the pKd is greater than 8.00. Besides, the pIC50 in experiment [3] (setting [4]) was greater than 8.00.
For the molecule `CCc1ccc(C2CCN(C3CCN(c4cnc(C(=O)NC)cc4C(F)(F)F)CC3)C2)[nH]c1=O` (single isomer, unassigned) [Compound 298a], the pKd in experiment [1] (probe displacement HTRF) was less than 5.00. Further, in experiment [2] (probe displacement HTRF), the Selectivity result is “− (− indicates a value of less than 10)” and the pKd was 5.00 to 6.00. Also, the pIC50 in experiment [3] (setting [4]) was 5.00 to 6.00.
Regarding `O=c1[nH]c(C2CCN(C3CCN(c4ccccc4)CC3)C2)nc2ccccc12` (single isomer, unassigned) [Compound 32b], in experiment [3] (setting [5]), the pIC50 was 6.00 to 7.00.
Turning to `CNC(=O)c1ccc(N2CCC(N3CCCC(c4nc5c(c(C(F)(F)F)nn5C)c(=O)[nH]4)C3)CC2)cn1` (single isomer, unassigned) [Compound 190b], the figures for the pKd in experiment [1] (PARP2 probe displacement HTRF) and in experiment [2] (PARP1 probe displacement HTRF) were 7.00 to 8.00 and greater than 8.00, respectively. In addition, the Selectivity entry in experiment [2] (probe displacement HTRF) was “++ (++ indicates a value of 50 to less than 100)”. Moreover, the pIC50 in experiment [3] (setting [5]) is greater than 8.00.
For `CNC(=O)c1ccc(N2CCC(N3CCCC(c4ccc(C5CC5)c(=O)[nH]4)C3)CC2)cn1` (single isomer, unassigned) [Compound 126a], the values for the pKd in experiment [1] (PARP2 probe displacement HTRF) and in experiment [2] (PARP1 probe displacement HTRF) were 5.00 to 6.00 and greater than 8.00, respectively. The Selectivity entry in experiment [2] (probe displacement HTRF) is on record as “+++ (+++ indicate a value of at least 100)”. For the same molecule, in experiment [3] (setting [5]), the pIC50 was greater than 8.00.
Take `CNC(=O)c1ccc(N2CCC(N3CCC(c4nc5[nH]nc(C(F)(F)F)c5c(=O)[nH]4)C3)CC2)c(F)n1` (single isomer, unassigned) [Compound 267b]: the pKd in experiment [1] (probe displacement HTRF) is 7.00 to 8.00; in experiment [2] (probe displacement HTRF) it was greater than 8.00. Moreover, in experiment [2] (probe displacement HTRF), the Selectivity entry is “+++ (+++ indicate a value of at least 100)”. Also, the pIC50 in experiment [3] (setting [4]) was greater than 8.00.
Take `CNC(=O)c1ccc(N2CCC(N3CCC(c4cc5c(Cl)cccc5c(=O)[nH]4)C3)CC2)cn1` (single isomer, unassigned) [Compound 137a]: the pKd in experiment [1] (PARP2 probe displacement HTRF) was 6.00 to 7.00; in experiment [2] (PARP1 probe displacement HTRF) it was greater than 8.00. Besides, the Selectivity entry in experiment [2] (probe displacement HTRF) is listed as “+++ (+++ indicate a value of at least 100)”. Also, the pIC50 in experiment [3] (setting [5]) is greater than 8.00.
As for `CCc1nc(C(=O)NC)ccc1N1CCC(N2CCC(c3nc4ccccc4c(=O)[nH]3)C2)CC1` (single isomer, unassigned) [Compound 118a], the pKd in experiment [1] (PARP2 probe displacement HTRF) was less than 5.00; in experiment [2] (PARP1 probe displacement HTRF) it was greater than 8.00. For the same molecule, the Selectivity entry in experiment [2] (probe displacement HTRF) is “+++ (+++ indicate a value of at least 100)”. Besides, in experiment [3] (setting [5]), the pIC50 is greater than 8.00.
For `O=C(NCC(F)(F)F)c1ccc(N2CCC(N3CCCC(c4nc5ccccc5c(=O)[nH]4)C3)CC2)cn1` (single isomer, unassigned) [Compound 115b], the values for the pKd in experiment [1] (PARP2 probe displacement HTRF) and in experiment [2] (PARP1 probe displacement HTRF) were 5.00 to 6.00 and 7.00 to 8.00, respectively. Besides, the Selectivity entry in experiment [2] (probe displacement HTRF) is given as “+++ (+++ indicate a value of at least 100)”. Also, the pIC50 in experiment [3] (setting [5]) was 7.00 to 8.00.
On to `CCc1cnc(C2CCN(CC3CCN(c4ccc(C(=O)NC)nc4)CC3)CC2)[nH]c1=O` [Compound 29], for which, in experiment [3] (setting [5]), the pIC50 was 5.00 to 6.00.
On the same count and under the same terms, next, `CCc1cnc(-c2ccn(C3CCN(c4ccc(C(=O)NC)nc4)CC3)c2)[nH]c1=O` [Compound 22]: 5.00 to 6.00; `CNC(=O)c1ccc(N(C)CCCN2CCCC(c3nc4ccccc4c(=O)[nH]3)C2)cn1` (single isomer, unassigned) [Compound 16a]: 6.00 to 7.00.
Turning to `CNC(=O)c1ccc(N2CC(N3CCCC(c4nc5ccccc5c(=O)[nH]4)C3)C2)cn1` (single isomer, unassigned) [Compound 23a], the pIC50 in experiment [3] (setting [5]) is 6.00 to 7.00.
Take `CNC(=O)c1ccc(N2CCC(N3CCC(c4nc5ccccc5c(=O)[nH]4)CC3)CC2)cn1` [Compound 1]: the pIC50 in experiment [3] (setting [5]) is 6.00 to 7.00.
For the molecule `CNC(=O)c1ccc(N(C)CCN2CCCC(Cc3nc4ccccc4c(=O)[nH]3)C2)cn1` (single isomer, unassigned) [Compound 13a], the pIC50 in experiment [3] (setting [5]) was 5.00 to 6.00.
On the same count and under the same terms, for `CNC(=O)c1ccc(N2CCC(n3ccc(-c4nc5ccccc5c(=O)[nH]4)c3)CC2)cn1` [Compound 18] the value was 6.00 to 7.00; for `CNC(=O)c1ccc(N2CCC(N3CCCC(c4ncc(C)c(=O)[nH]4)C3)CC2)cn1` (single isomer, unassigned) [Compound 33a], less than 5.00.
As to `CCc1cnc(-c2ccn(C3CCN(c4ccc(C(=O)NC)nc4)CC3)n2)[nH]c1=O` [Compound 25], the pIC50 in experiment [3] (setting [5]) is 6.00 to 7.00.
Regarding `CNC(=O)c1ccc(OCCCN2CCCC(c3nc4ccccc4c(=O)[nH]3)C2)cn1` (single isomer, unassigned) [Compound 7b], the pIC50 in experiment [3] (setting [5]) is 6.00 to 7.00.
Consider `CCc1cnc(C2CCCN(C3CCN(c4ccc(C(=O)NC)nc4)CC3)C2)[nH]c1=O` (single isomer, unassigned) [Compound 31a], for which, in experiment [3] (setting [5]), the pIC50 is 5.00 to 6.00.
For `CNC(=O)c1ccc(N2CC(N3CCC(c4nc5ccccc5c(=O)[nH]4)CC3)C2)cn1` [Compound 28], the pIC50 in experiment [3] (setting [5]) was 6.00 to 7.00.
For the molecule `CCc1cnc(C2CCCN(C3CCC(F)(F)CC3)C2)[nH]c1=O` (single isomer, unassigned) [Compound 24a], the pIC50 in experiment [3] (setting [5]) was 5.00 to 6.00.
`CCc1cnc(C2CCN(C3CCC(F)(F)CC3)CC2)[nH]c1=O` [Compound 21]: in experiment [3] (setting [5]), the pIC50 was 5.00 to 6.00.
On the same count and under the same terms, next, `CNC(=O)c1ccc(OCCN2CCCC(Cc3nc4ccccc4c(=O)[nH]3)C2)cn1` (single isomer, unassigned) [Compound 14a, N-methyl-5-(2-(3-((4-oxo-3,4-dihydroquinazolin-2-yl)methyl)piperidin-1-yl)ethoxy)picolinamide]: 5.00 to 6.00; `O=c1[nH]c(C2CCN(C3CCC(F)(F)CC3)C2)nc2ccccc12` (single isomer, unassigned) [Compound 4b]: 6.00 to 7.00; `CNC(=O)c1ccc(N2CCC(N3CCC(c4ncc(C)c(=O)[nH]4)C3)CC2)cn1` (single isomer, unassigned) [Compound 35a]: 6.00 to 7.00.
`O=c1[nH]c(C2CCCN(C3CCC(F)(F)CC3)C2)nc2ccccc12` (single isomer, unassigned) [Compound 3b]: the pIC50 in experiment [3] (setting [5]) was 6.00 to 7.00.
Turning to `CCc1cnc(C2CCN(C3CCN(c4ccc(C(=O)NC)nc4)CC3)CC2)[nH]c1=O` [Compound 19], the pIC50 in experiment [3] (setting [5]) was 5.00 to 6.00.
With `O=c1[nH]c(C2CCCN(C3CCC(F)(F)CC3)C2)nc2ccccc12` (single isomer, unassigned) [Compound 3a], the pIC50 in experiment [3] (setting [5]) is 6.00 to 7.00.
With `CNC(=O)c1ccc(N(C)CCCN2CCCC(c3nc4ccccc4c(=O)[nH]3)C2)cn1` (single isomer, unassigned) [Compound 16b], the pIC50 in experiment [3] (setting [5]) is 6.00 to 7.00.
Regarding `CNC(=O)c1ccc(N2CCC(c3nc4ccccc4c(=O)[nH]3)CC2)cn1` [Compound 5], in experiment [3] (setting [5]), the pIC50 was 5.00 to 6.00.
Still for that read-out and setting: next, `CNC(=O)c1ccc(N2CCC(N3CCCC(c4nc5ccccc5c(=O)[nH]4)C3)CC2)c(C)n1` (stereo not shown) [Compound 131]: 5.00 to 6.00; `CNC(=O)c1ccc(N2CCC(CN3CCC(c4ncc(C)c(=O)[nH]4)CC3)CC2)cn1` [Compound 30]: 6.00 to 7.00; `CNC(=O)c1ccc(N(C)CCCN2CCC(c3nc4ccccc4c(=O)[nH]3)CC2)cn1` [Compound 12]: 6.00 to 7.00.
The same measure, in the same setting: for `CCc1cnc(C2CCCN(C3CCC(F)(F)CC3)C2)[nH]c1=O` (single isomer, unassigned) [Compound 24b] the value was 5.00 to 6.00.
Regarding `CNC(=O)c1ccc(N2CCC(n3ccc(-c4nc5ccccc5c(=O)[nH]4)n3)CC2)cn1` [Compound 15], the pIC50 in experiment [3] (setting [5]) is 6.00 to 7.00.
As to `CNC(=O)c1ccc(N2CCC(N3CCC4CC4(c4nc5ccccc5c(=O)[nH]4)C3)CC2)cn1` (single isomer, unassigned) [Compound 90b], the pKd in experiment [1] (PARP2 probe displacement HTRF) was 5.00 to 6.00; in experiment [2] (PARP1 probe displacement HTRF) it was 6.00 to 7.00. The Selectivity result in experiment [2] (probe displacement HTRF) is on record as “+ (+ indicates a value of 10 to less than 50)”.
Turning to `CNC(=O)c1ccc(N2CCC(N3CCC(c4nc5cc(Cl)ccc5c(=O)[nH]4)C3)CC2)cn1` (single isomer, unassigned) [Compound 87b], the pKd in experiment [1] (PARP2 probe displacement HTRF) was 5.00 to 6.00; in experiment [2] (PARP1 probe displacement HTRF) it was greater than 8.00. Also, the Selectivity result in experiment [2] (probe displacement HTRF) was “+++ (+++ indicate a value of at least 100)”.

These data come from patent US20250152585A1, “PHARMACEUTICAL COMPOUND” (Duke Street Bio Limited, priority 2022, published 2025).
